{
  "source": "paper PMC11521183",
  "about": "(Emerging Infectious Diseases, 2024)",
  "tested_on": "reference seasonal A(H3N2) viruses A/Louisiana/50/2017 and A/Louisiana/49/2017",
  "experiment": "microbe, parasite or virus in culture",
  "format": "cell-based, influenza A virus",
  "conditions": "read-out: Mean EC50 + SD",
  "note": "pEC50: −log10 of the molar value.",
  "data": [
    {"smiles": "O=C1c2c(O)c(=O)ccn2N([C@@H]2c3ccccc3SCc3c2ccc(F)c3F)[C@@H]2COCCN12", "note": "[baloxavir, baloxavir acid]", "values": [
      {"measurement": "pEC50", "value": 7.85}
    ]}
  ]
}
